Assay results: patent US20230348506A1, “MACROCYCLIC PANTETHEINE DERIVATIVES AND USES THEREOF” (VectivBio Comet AG, priority 2019, published 2023)

What was measured:
Format in all cases: cell-based, human
[1] = system: MMA Patient fibroblasts (GM01673, Coriell Institute for Medical Research); assay: Mitochondrial fusion and networking (high-content imaging); set-up: key: Mitochondrial elongation and networking was described as slight, mild or good; Mitochondrial elongation and networking was described as slight, mild or good; Mitochondrial elongation and networking was described as slight, mild or good; conditions: 10 μM compound, 2 hours, compared to vehicle control
Protocol: Cells were seeded in 96-well plates (density 3000 cells/well) in culture minimum MEM (GIBCO, 10370-021) supplemented with 2 mM L-Glutamine (Thermo Fisher Scientific), 15% FBS (Thermo Fisher Scientific 26400044) and 1% penicillin/streptomycin. Cells were incubated for 48 hours (37° C, 5% CO2), then treated with 10 μM compounds from the present disclosure, 1% DMSO (vehicle) or 5 μM FCCP (control) for 2 hours in fasted conditional medium: Agilent XF DMEM (Agilent 103575-100), pH 7.4 supplemented with 10% FBS (Thermo Fisher Scientific 26400044), 0.03% penicillin/streptomycin 1 mM glucose, 2 mM L-glutamine and 1 mM pyruvate.
After treatment, media was removed, and cells were stained with 100 μl of 1×mixture dye solution of 1 μg/mL JC-1 (Invitrogen Cat #T3168) and 50 ng/ml MitoTracker deep red (Invitrogen Cat #M22426) at 37° C. for 30 minutes. Next, staining was removed, the cells were washed once with 150 μl PBS, and 150 μl of fasted conditional medium (described above) is added to each well. Analysis was carried out on live cells using a Thermo Scientific CellInsight CX7 LZR High-Content Screening Platform. Mitochondrial elongation and networking was described as slight, mild or good.

[2] = system: HepG2 cells; assay: Glucose uptake (Glucose Uptake-Glo assay); conditions: 10 μM compound; insulin control 100 nM
Protocol: The effect of compounds from the present disclosure on glucose uptake was determined in HepG2 cells (ATCC, HB-8065) using the glucose uptake Glo Assay Kit (Promega, J1343 according to manufacturer instructions. HepG2 cells were cultured in complete DMEM-glucose media (Gibco) supplemented with 10% FBS (37° C. incubator with 5% CO2) and seeded in 96-well plates at 30,000 cells/well. After removing the complete media, 100 μL/well of serum-free, high-glucose DMEM media were added to the wells and incubated overnight (37° C. incubator with 5% CO2). Media was then replaced with 100 μL/well DPBS containing 0.6% BSA and starved for 1 hour. Next, DPBS was removed and 45 μl/well of insulin (100 nM) or compounds (10 μM-50 μM) were added to the wells and incubated for 10 minutes (37° C. incubator with 5% CO2). Insulin and compounds were prepared in DPBS with 0.6% BSA with a final DMSO concentration of 0.1%. Next, 5 μL of 2DG (10 mM) in DPBS were added per well and allowed to incubate for 20 minutes followed by addition of 25 μL stop buffer. 37.5 μL of the mixture were then transferred to a new plate and 12.5 μL of Neutralization buffer added to the wells. After, 50 μL of 2DG6P detection Reagent were added and incubated for 0.5-1 hour at room temperature. Luminescence was measured with 0.3-1 second integration on a luminometer. […]

[3] = system: primary adherent fibroblast cell line derived from an Methylmalonic Acidemia (MMA) patient (GM01673, Coriell Institute for Medical Research); assay: Mitochondrial respiration (Seahorse XFe96, OCR), Spare Capacity AUC; conditions: 10 μM compound; medium with 10 mM glucose, 2 mM glutamine, 1 mM pyruvate; 1 μM FCCP for 20 cycles; relative to vehicle
Protocol: The effect of the compounds of the present disclosure on mitochondrial respiration was measured with a XFe96 Extracellular Flux Analyzer (Seahorse Bioscience, Agilent Technologies) and Oxygen consumption Rate (OCR) and Extracellular acidification rate (ECAR) determined.
Cell culture and treatments. Primary adherent fibroblasts were cultured in minimum essential medium (MEM) (Gibco, 25030081) supplemented with 2 mM L-Glutamine (Gibco, 25030081), 15% fetal bovine serum (FBS) (Gibco, 26400044) and 1% penicillin/streptomycin (Gibco, 5140122) at 37° C. and 5% CO2. Cells were collected for either passaging or experiment at ˜70-80% confluence. Cells were obtained by trypsinization and seeded at 10,000 cells/well in cell culture microplates (Seahorse Bioscience, 101085-004) and allowed to adhere for 48 hours in culture media. […]
Determining the optimized cell density and concentrations for stress test, such as FCCP, were achieved through methods well known to those of skill in the art. After baseline measurements of OCR, cells were challenged with compounds of the present disclosure at different concentrations (10 to 50 μM) or vehicle (DMSO, 0.1%) and a post-compound baseline was recorded. OCR was measured after sequentially adding to each well 1.5 μg/ml oligomycin (inhibitor of ATP synthase Sigma-Aldrich, 753531), then maximal OCR was determined with carbonyl cyanide 4-(trifluoromethoxy) phenylhydrazone (FCCP, Sigma-Aldrich, C2920), (uncoupler of oxidative phosphorylation) and 1.0 μM of rotenone (Sigma-Aldrich, R8875) plus antimycin A (Sigma-Aldrich, A8674) (inhibitors of mitochondrial complex I and III) for determination of rotenone-antimycin insensitive respiration together with Hoechst for nuclear staining in situ when normalized to cell counts. After the analysis and nuclear staining, the XFp microplate was transferred to the Cytation 5, and the nuclear images were captured, the individual nuclei were identified and counted by BioTek Gen5 software. […]

CC(C)(CO)[C@H]1OC(=O)CCC(=O)SCCNC(=O)CCNC1=O [Compound 61, (R)-2-(1-hydroxy-2-methylpropan-2-yl)-1-oxa-11-thia-4,8-diazacyclopentadecane-3,7,12,15-tetraone]
mitochondrial elongation and networking [1]: slight
stimulation of Glucose Uptake, % of insulin control [2]: at least 15%
increase of Spare Capacity AUC [3]: > 20%
